{"source": "patent US7105698B2", "about": "“Process for the separation of R(-)-and S(+)-5-[2-[[2-(2-ethoxyphenoxy)ethyl]amino]propyl]-2- methoxybenzenesulfonamide” (Ragactives, S.L., priority 2002, dated 2006)", "origin": "cited, not measured here", "conditions": "ratio R(−)-I versus S(+)-I; prior studies"}
{"smiles": "CCOc1ccccc1OCCN[C@H](C)Cc1ccc(OC)c(S(N)(=O)=O)c1", "note": "[R(−)-I, R(−)-5-[2-[[2-(2-ethoxyphenoxy)ethyl]amino]propyl]-2-methoxybenzenesulfonamide]", "values": [{"measurement": "pharmacological action of R(−)-I relative to its S(+)-I enantiomer", "result": "up to 320 times"}]}
